Columns and labels:
[1] = target: T1, Human adenosine A1 receptors (Homo sapiens, UniProt P30542); assay: biochemical; conditions: [3H]-DPCPX 1 nM, 60 min, 27°C
T1 sequence (P30542 1-326): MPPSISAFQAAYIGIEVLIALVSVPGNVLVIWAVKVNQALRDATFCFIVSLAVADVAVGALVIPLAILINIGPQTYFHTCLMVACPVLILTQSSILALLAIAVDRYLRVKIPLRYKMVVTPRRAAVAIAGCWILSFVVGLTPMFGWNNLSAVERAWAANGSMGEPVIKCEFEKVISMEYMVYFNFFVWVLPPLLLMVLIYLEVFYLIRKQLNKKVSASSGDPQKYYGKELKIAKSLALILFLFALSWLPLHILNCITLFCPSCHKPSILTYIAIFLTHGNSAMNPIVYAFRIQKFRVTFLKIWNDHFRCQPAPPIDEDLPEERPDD
Description: Binding experiments were performed according to the data sheet provided by the supplier of the receptor (Perkin Elmer) with modifications:
Approximately 2.4-3 µg protein-containing membranes were incubated for 60 min in a total volume of 100 µL at 27°C: assay buffer:
Test compound data are presented as specific radioligand binding to the receptor.
(§1) In case of ill-defined curves or algorithm-generated minima below the defined non-specific binding, the IC50 value was determined by graphical extrapolation.

[2] = target: human adenosine A2A receptors (Homo sapiens, UniProt P29274); assay: Adenosine A2A receptor radioligand binding assay ([125I]-ZM241385 competition, membranes of HEK293 cells)
human adenosine A2A receptors, sequence (P29274 whole entry): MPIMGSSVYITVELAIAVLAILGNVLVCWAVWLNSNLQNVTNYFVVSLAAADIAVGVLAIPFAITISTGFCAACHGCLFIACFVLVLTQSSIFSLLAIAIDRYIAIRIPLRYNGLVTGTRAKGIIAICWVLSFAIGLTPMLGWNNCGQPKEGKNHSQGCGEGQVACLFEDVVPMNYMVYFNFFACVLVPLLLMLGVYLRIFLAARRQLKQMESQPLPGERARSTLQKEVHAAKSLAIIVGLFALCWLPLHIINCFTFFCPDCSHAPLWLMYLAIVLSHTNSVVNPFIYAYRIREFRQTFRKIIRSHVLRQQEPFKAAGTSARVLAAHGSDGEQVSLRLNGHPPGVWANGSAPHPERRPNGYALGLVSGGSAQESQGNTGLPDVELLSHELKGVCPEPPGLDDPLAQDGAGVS
Description: Approximately 0.4-0.9 µg protein-containing membranes were incubated for 60 min in a total volume of 100 µL at 37°C. assay buffer:
Test compound data are presented as specific radioligand binding to the receptor. Specific binding is defined as the difference between the total binding and the non-specific binding determined in the presence of the reference compound as detailed in the previous sections.
as §1

Adenosine A1 receptor = Adenosine A1 receptor (Rattus norvegicus, UniProt P25099); conditions: read-out: IC50 Mean (footnote: Literature value determined in rat), Ji et al., J Med. Chem. 39, 781-788 (1996); cited from earlier work
Adenosine A1 receptor, sequence (P25099 whole entry): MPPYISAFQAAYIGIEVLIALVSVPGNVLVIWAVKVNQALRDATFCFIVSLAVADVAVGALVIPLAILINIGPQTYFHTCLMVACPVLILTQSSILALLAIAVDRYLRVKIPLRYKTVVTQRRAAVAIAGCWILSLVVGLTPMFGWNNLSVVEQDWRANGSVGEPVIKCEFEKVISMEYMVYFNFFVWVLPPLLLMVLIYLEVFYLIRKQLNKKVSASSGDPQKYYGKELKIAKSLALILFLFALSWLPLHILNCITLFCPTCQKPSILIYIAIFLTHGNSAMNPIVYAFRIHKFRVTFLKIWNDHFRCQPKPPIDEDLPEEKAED

Compound: COc1cc2oc(-c3ccc(O)cc3)cc(=O)c2c(O)c1OC [Cirsimaritin]
- IC50 ([1]; IC50 1.M, first measurement): 617 µM
- IC50 ([1]; IC50 2.M, second measurement): 122 µM
- IC50 ([2]; IC50 1.M, first measurement, [125I]-ZM241385 20000 cpm, 60 min, 37°C): 1300 nM
- IC50 ([2]; IC50 2.M, second measurement, [125I]-ZM241385 20000 cpm, 60 min, 37°C): 2100 nM
- IC50 ([2]; IC50 Mean, mean of 1.M and 2.M): 1700 nM
- IC50 (Adenosine A1 receptor): 1200 nM

Source: EP4631502A1 (Nicoventures Trading Limited, priority 2024, dated 2025)
